Source: patent publication US20230022724A1, “NOVEL IMIDAZOPYRAZINE DERIVATIVES” (Hoffmann-La Roche Inc., priority 2018, published 2023)
Counter-ions that a name gives are not always drawn.

These compounds were tested on Acinetobacter baumannii ATCC17978 (assay: Antimicrobial susceptibility testing: 90% growth inhibitory concentration (IC90) determination). Details: 90% growth inhibitory concentration, Acinetobacter baumannii ATCC17978, Iso-Sensitest broth, OD 600 nm over 16 h; read-out: ATCC17978 IC90.
Format: cell-based
Procedure, shortened: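 Compounds in twofold series (e.g. 50 to 0.097 μM final) in Iso-Sensitest broth, inoculated at ~5×10^5 CFU/ml, incubated at 35±2° C. OD600 was read every 20 minutes for 16 h. IC90 was derived from growth inhibition during logarithmic phase.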
`N#CCOc1ccc(-c2cnc3c(Nc4ccc(C(=O)N5CCC(C(=O)OCC6CNCCN6)CC5)c(Cl)c4)nccn23)c(F)c1F` (centres unmarked) [Example 83, piperazin-2-ylmethyl 1-[2-chloro-4-[[3-[4-(cyanomethoxy)-2,3-difluorophenyl]imidazo[1,2-a]pyrazin-8-yl]amino]benzoyl]piperidine-4-carboxylate;2,2,2-trifluoroacetic acid] showed an IC90 of 140 nM.
`CN(C)CCN1CCN(C(=O)c2ccc(Nc3nccn4c(-c5ccc(OCC#N)c(F)c5F)cnc34)cc2Cl)CC1` [Example 84, 2-[4-[8-[3-chloro-4-[4-[2-(dimethylamino)ethyl]piperazine-1-carbonyl]anilino]imidazo[1,2-a]pyrazin-3-yl]-2,3-difluorophenoxy]acetonitrile; 2,2,2-trifluoroacetic acid] gave an IC90 of 110 nM.

Same assay, conditions: Acinetobacter baumannii, ATCC17978, 16 h, 90% growth inhibitory concentration, Acinetobacter baumannii ATCC17978, Iso-Sensitest broth, OD 600 nm over 16 h; read-out: ATCC17978 IC90
For `N#CCOc1ccc(-c2cnc3c(Nc4ccc(C(=O)N5CCN(CCN6CCC(C(N)=O)C6)CC5)c(Cl)c4)nccn23)c(F)c1F` (centres unmarked) [Example 89], the IC90 was 42 nM.
For `CNCCN1CCN(C(=O)c2ccc(Nc3nccn4c(-c5ccc(OCC#N)c(F)c5F)cnc34)cc2Cl)CC1` [Example 91, 2-[4-[8-[3-chloro-4-[4-[2-(methylamino)ethyl]piperazine-1-carbonyl]anilino]imidazo[1,2-a]pyrazin-3-yl]-2,3-difluorophenoxy]acetonitrile; 2,2,2-trifluoroacetic acid], the IC90 was 49 nM.
`N#CCOc1ccc(-c2cnc3c(Nc4ccc(C(=O)N5CCN(CCN6CC(C(N)=O)C6)CC5)c(Cl)c4)nccn23)c(F)c1F` [Example 94, 1-[2-[4-[2-chloro-4-[[3-[4-(cyanomethoxy)-2,3-difluorophenyl]imidazo[1,2-a]pyrazin-8-yl]amino]benzoyl]piperazin-1-yl]ethyl]azetidine-3-carboxamide;2,2,2-trifluoroacetic acid] showed an IC90 of 54 nM.
`N#CCOc1ccc(-c2cnc3c(Nc4ccc(C(=O)N5CCN(CCN6CCC[C@H]6C(=O)O)CC5)c(Cl)c4)nccn23)c(F)c1F` [Example 104, (2-(4-(2-chloro-4-((3-(4-(cyanomethoxy)-2,3-difluorophenyl)imidazo[1,2-a]pyrazin-8-yl)amino)benzoyl)piperazin-1-yl)ethyl)proline trifluoroacetate] was tested, and the IC90 was 630 nM.
With `N#CCOc1ccc(-c2cnc3c(Nc4ccc(C(=O)N5CCN(CCN6CC(c7nnn[nH]7)C6)CC5)c(Cl)c4)nccn23)c(F)c1F` [Example 105, 2-(4-(8-((4-(4-(2-(3-(2H-tetrazol-5-yl)azetidin-1-yl)ethyl)piperazine-1-carbonyl)-3-chlorophenyl)amino)imidazo [1,2-a]pyrazin-3-yl)-2,3-difluorophenoxy)acetonitrile trifluoroacetate] the IC90 was 360 nM.

Same assay, conditions: Acinetobacter baumannii, ATCC17978, 16 h, read-out: ATCC17978 IC90
With `N#CCOc1ccc(-c2cnc3c(Nc4ccc(C(=O)N5CCC(C(=O)N6CCN[C@@H](CO)C6)CC5)c(Cl)c4)nccn23)c(F)c1F` [Example 85, 2-[4-[8-[3-chloro-4-[4-[(3R)-3-(hydroxymethyl)piperazine-1-carbonyl]piperidine-1-carbonyl]anilino]imidazo[1,2-a]pyrazin-3-yl]-2,3-difluorophenoxy]acetonitrile; formic acid] the IC90 was 46 nM.
Compound `N#CCOc1ccc(-c2cnc3c(Nc4ccc(C(=O)N5CCC(C(=O)N6CCN[C@@H](CO)C6)CC5)c(Cl)c4)nccn23)c(Cl)c1F` [Example 86, 2-[3-chloro-4-[8-[3-chloro-4-[4-[(3R)-3-(hydroxymethyl)piperazine-1-carbonyl]piperidine-1-carbonyl]anilino]imidazo[1,2-a]pyrazin-3-yl]-2-fluorophenoxy]acetonitrile; formic acid] has an IC90 of 49 nM.
`N#CCOc1ccc(-c2cnc3c(Nc4ccc(C(=O)N5CCC(C(=O)N6CCN[C@H](CO)C6)CC5)c(Cl)c4)nccn23)c(F)c1F` [Example 87, 2-[4-[8-[3-chloro-4-[4-[(3S)-3-(hydroxymethyl)piperazine-1-carbonyl]piperidine-1-carbonyl]anilino]imidazo[1,2-a]pyrazin-3-yl]-2,3-difluorophenoxy]acetonitrile; formic acid] gave an IC90 of 52 nM.
`N#CCOc1ccc(-c2cnc3c(Nc4ccc(C(=O)N5CCC(C(=O)N6CCN[C@H](CO)C6)CC5)c(Cl)c4)nccn23)c(Cl)c1F` [Example 88, 2-[3-chloro-4-[8-[3-chloro-4-[4-[(3S)-3-(hydroxymethyl)piperazine-1-carbonyl]piperidine-1-carbonyl]anilino]imidazo[1,2-a]pyrazin-3-yl]-2-fluorophenoxy]acetonitrile; formic acid] was tested, and the IC90 was 90 nM.
Work on `N#CCOc1ccc(-c2cnc3c(Nc4ccc(C(=O)N5CCN(CCN6CCC(CO)C6)CC5)c(Cl)c4)nccn23)c(F)c1F` (centres unmarked) [Example 90, 2-[4-[8-[3-chloro-4-[4-[2-[3-(hydroxymethyl)pyrrolidin-1-yl]ethyl]piperazine-1-carbonyl]anilino]imidazo[1,2-a]pyrazin-3-yl]-2,3-difluorophenoxy]acetonitrile; 2,2,2-trifluoroacetic acid] yielded an IC90 of 43 nM.
Compound `N#CCOc1ccc(-c2cnc3c(Nc4ccc(C(=O)N5CCN(CCN6CC(CO)C6)CC5)c(Cl)c4)nccn23)c(F)c1F` [Example 92, 2-[4-[8-[3-chloro-4-[4-[2-[3-(hydroxymethyl)azetidin-1-yl]ethyl]piperazine-1-carbonyl]anilino]imidazo[1,2-a]pyrazin-3-yl]-2,3-difluorophenoxy]acetonitrile; 2,2,2-trifluoroacetic acid] has an IC90 of 50 nM.
Work on `N#CCOc1ccc(-c2cnc3c(Nc4ccc(C(=O)N5CCN(CCN6CCCC6CO)CC5)c(Cl)c4)nccn23)c(F)c1F` (centres unmarked) [Example 93, 2-[4-[8-[3-chloro-4-[4-[2-[2-(hydroxymethyl)pyrrolidin-1-yl]ethyl]piperazine-1-carbonyl]anilino]imidazo[1,2-a]pyrazin-3-yl]-2,3-difluorophenoxy]acetonitrile; 2,2,2-trifluoroacetic acid] yielded an IC90 of 53 nM.
Compound `N#CCOc1ccc(-c2cnc3c(Nc4ccc(C(=O)N5CCN(CCN6CCC(O)C6)CC5)c(Cl)c4)nccn23)c(F)c1F` (centres unmarked) [Example 95, 2-[4-[8-[3-chloro-4-[4-[2-(3-hydroxypyrrolidin-1-yl)ethyl]piperazine-1-carbonyl]anilino]imidazo[1,2-a]pyrazin-3-yl]-2,3-difluorophenoxy]acetonitrile; 2,2,2-trifluoroacetic acid] has an IC90 of 56 nM.
Compound `N#CCOc1ccc(-c2cnc3c(Nc4ccc(C(=O)N5CCN(CCN6CC(O)C6)CC5)c(Cl)c4)nccn23)c(F)c1F` [Example 96, 2-[4-[8-[3-chloro-4-[4-[2-(3-hydroxyazetidin-1-yl)ethyl]piperazine-1-carbonyl]anilino]imidazo[1,2-a]pyrazin-3-yl]-2,3-difluorophenoxy]acetonitrile; 2,2,2-trifluoroacetic acid] has an IC90 of 73 nM.
`COC1CN(CCN2CCN(C(=O)c3ccc(Nc4nccn5c(-c6ccc(OCC#N)c(F)c6F)cnc45)cc3Cl)CC2)C1` [Example 97, 2-[4-[8-[3-chloro-4-[4-[2-(3-methoxyazetidin-1-yl)ethyl]piperazine-1-carbonyl]anilino]imidazo[1,2-a]pyrazin-3-yl]-2,3-difluorophenoxy]acetonitrile; 2,2,2-trifluoroacetic acid] showed an IC90 of 100 nM.
For `CS(=O)(=O)C1CN(CCN2CCN(C(=O)c3ccc(Nc4nccn5c(-c6ccc(OCC#N)c(F)c6F)cnc45)cc3Cl)CC2)C1` [Example 98, 2-[4-[8-[3-chloro-4-[4-[2-(3-methylsulfonylazetidin-1-yl)ethyl]piperazine-1-carbonyl]anilino]imidazo[1,2-a]pyrazin-3-yl]-2,3-difluorophenoxy]acetonitrile; 2,2,2-trifluoroacetic acid], the IC90 was 140 nM.
Compound `CN(C)CC1CN(CCN2CCN(C(=O)c3ccc(Nc4nccn5c(-c6ccc(OCC#N)c(F)c6F)cnc45)cc3Cl)CC2)C1` [Example 99, 2-[4-[8-[3-chloro-4-[4-[2-[3-[(dimethylamino)methyl]azetidin-1-yl]ethyl]piperazine-1-carbonyl]anilino]imidazo[1,2-a]pyrazin-3-yl]-2,3-difluorophenoxy]acetonitrile; 2,2,2-trifluoroacetic acid] has an IC90 of 170 nM.
In the case of `CN(C)C1CCN(CCN2CCN(C(=O)c3ccc(Nc4nccn5c(-c6ccc(OCC#N)c(F)c6F)cnc45)cc3Cl)CC2)C1` (centres unmarked) [Example 100, 2-[4-[8-[3-chloro-4-[4-[2-[3-(dimethylamino)pyrrolidin-1-yl]ethyl]piperazine-1-carbonyl]anilino]imidazo[1,2-a]pyrazin-3-yl]-2,3-difluorophenoxy]acetonitrile; 2,2,2-trifluoroacetic acid], the IC90 is reported as 170 nM.
Work on `CN(C)C1CCN(CCN2CCN(C(=O)c3ccc(Nc4nccn5c(-c6ccc(OCC#N)c(F)c6F)cnc45)cc3Cl)CC2)CC1` [Example 101, 2-[4-[8-[3-chloro-4-[4-[2-[4-(dimethylamino)piperidin-1-yl]ethyl]piperazine-1-carbonyl]anilino]imidazo[1,2-a]pyrazin-3-yl]-2,3-difluorophenoxy]acetonitrile; 2,2,2-trifluoroacetic acid] yielded an IC90 of 170 nM.
In the case of `CN(C)C1CN(CCN2CCN(C(=O)c3ccc(Nc4nccn5c(-c6ccc(OCC#N)c(F)c6F)cnc45)cc3Cl)CC2)C1` [Example 102, 2-[4-[8-[3-chloro-4-[4-[2-[3-(dimethylamino)azetidin-1-yl]ethyl]piperazine-1-carbonyl]anilino]imidazo[1,2-a]pyrazin-3-yl]-2,3-difluorophenoxy]acetonitrile; 2,2,2-trifluoroacetic acid], the IC90 is reported as 170 nM.
For `CS(=O)(=O)C1CCN(CCN2CCN(C(=O)c3ccc(Nc4nccn5c(-c6ccc(OCC#N)c(F)c6F)cnc45)cc3Cl)CC2)C1` (centres unmarked) [Example 103, 2-[4-[8-[3-chloro-4-[4-[2-(3-methylsulfonylpyrrolidin-1-yl)ethyl]piperazine-1-carbonyl]anilino]imidazo[1,2-a]pyrazin-3-yl]-2,3-difluorophenoxy]acetonitrile; 2,2,2-trifluoroacetic acid], the IC90 was 180 nM.
